Data set [1] is described as follows: in vitro. The note with it: Sprague-Dawley, rat, liver microsomes. Background: Microsomes from liver hold many membrane-bound enzymes, among them those of drug oxidation.
Data set [2] is described as follows: in vitro. The settings on record: Sprague-Dawley, rat, liver microsomes. This is another data set of the same source.
Description: Stability in Sprague-Dawley rat liver microsomes assessed as parent compound remaining at 10 uM measured after 60 mins in absence of NADPH regenerating system by HPLC analysis
The test system of a further data set is HepG2. The experiment in a line: Cytotoxicity against human HepG2 cells assessed as reduction in cell viability measured after 48 hrs by MTT assay. The note with it: HepG2, 48 h. It is filed as cell-based. For orientation: Formazan colour is commonly taken as a measure of viable cells.
Data set [3] relates to Mus musculus. The experiment in a line: Antiinflammatory activity in BALB/c mouse model of carrageenan-induced paw edema assessed as paw edema at 100 mg/kg, ip pretreated for 1 hr followed by carrageenan challenge and measured after 4 hrs by caliper method relative to control. The class given is functional. The settings on record: time 5 hrs. A general note: Carrageenan injected into the paw causes an acute inflammation.

For data set [4], the system named is Mus musculus. The data set can be described thus: Antiinflammatory activity in BALB/c mouse model of carrageenan-induced paw edema assessed as paw thickness at 100 mg/kg, ip pretreated for 1 hr followed by carrageenan challenge and measured after 2 hrs by caliper method (reference value: 3.56 +/- 0.29 millimeter). It is filed as functional. The note with it: time 3 hrs.

Data set [5] is described as follows: in vitro. The note with it: Sprague-Dawley, rat, liver microsomes. The source holds these as a separate data set.
Description: Half life in Sprague-Dawley rat liver microsomes at 10 uM measured up to 60 mins in presence of NADPH regenerating system by HPLC analysis
Data set [6] deals with Mus musculus. The data set can be described thus: Antiinflammatory activity in BALB/c mouse model of carrageenan-induced paw edema assessed as paw thickness at 100 mg/kg, ip pretreated for 1 hr followed by carrageenan challenge and measured after 3 hrs by caliper method (reference value: 3.61 +/- 0.36 millimeter). It is filed as functional. The note with it: time 4 hrs.
The target in data set [7] is T1, Bifunctional epoxide hydrolase 2 (Homo sapiens) (UniProt P34913).
T1 sequence (whole entry): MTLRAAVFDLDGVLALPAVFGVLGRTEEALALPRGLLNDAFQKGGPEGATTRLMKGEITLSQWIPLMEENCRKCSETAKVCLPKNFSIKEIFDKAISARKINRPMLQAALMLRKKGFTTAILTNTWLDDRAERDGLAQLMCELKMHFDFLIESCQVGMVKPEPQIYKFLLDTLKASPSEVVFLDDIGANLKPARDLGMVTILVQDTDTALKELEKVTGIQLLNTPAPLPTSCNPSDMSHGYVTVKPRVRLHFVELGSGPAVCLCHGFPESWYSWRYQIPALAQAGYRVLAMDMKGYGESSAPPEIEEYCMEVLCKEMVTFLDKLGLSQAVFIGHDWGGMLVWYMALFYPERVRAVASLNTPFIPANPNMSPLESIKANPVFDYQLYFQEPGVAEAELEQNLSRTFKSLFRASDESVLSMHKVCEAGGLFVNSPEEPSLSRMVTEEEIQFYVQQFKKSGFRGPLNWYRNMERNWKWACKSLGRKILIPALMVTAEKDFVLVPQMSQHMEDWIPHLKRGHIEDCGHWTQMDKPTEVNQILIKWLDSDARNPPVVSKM
The experiment in a line: Inhibition of recombinant human sEH at 100 nM using PHOME as substrate measured after 15 mins by fluorescence assay relative to control.

The subject of data set [8] is Mus musculus. The data set can be described thus: Antiinflammatory activity in BALB/c mouse model of carrageenan-induced paw edema assessed as paw edema at 100 mg/kg, ip pretreated for 1 hr followed by carrageenan challenge and measured after 3 hrs by caliper method relative to control. The settings on record: time 4 hrs. It is filed as functional.
Data set [9] relates to Mus musculus. The experiment in a line: Antiinflammatory activity in BALB/c mouse model of carrageenan-induced paw edema assessed as paw thickness at 100 mg/kg, ip pretreated for 1 hr followed by carrageenan challenge and measured after 4 hrs by caliper method (reference value: 3.60 +/- 0.12 millimeter). The note with it: time 5 hrs. It is filed as functional.
The nature of data set [10]: in vitro. The settings on record: Sprague-Dawley, rat, liver microsomes. This is another data set of the same source.
Description: Stability in Sprague-Dawley rat liver microsomes assessed as parent compound remaining at 10 uM measured after 60 mins in presence of NADPH regenerating system by HPLC analysis
Data set [11] can be described thus: Solubility of compound in pH 7.4 PBS buffer measured after 2 hrs by turbidimetric assay. The class given is physicochemical.
Data set [12] has as its system Mus musculus. The experiment in a line: Antiinflammatory activity in BALB/c mouse model of carrageenan-induced paw edema assessed as paw thickness at 100 mg/kg, ip pretreated for 1 hr followed by carrageenan challenge and measured after 1 hr by caliper method (reference value: 3.51 +/- 0.19 millimeter). The settings on record: time 2 hrs. It is filed as functional.

Data set [13] has as its system Mus musculus. The experiment in a line: Antiinflammatory activity in BALB/c mouse model of carrageenan-induced paw edema assessed as paw edema at 100 mg/kg, ip pretreated for 1 hr followed by carrageenan challenge and measured after 2 hrs by caliper method relative to control. The settings on record: time 3 hrs. The class given is functional.
For data set [14], the system named is Mus musculus. The experiment in a line: Antiinflammatory activity in BALB/c mouse model of carrageenan-induced paw edema assessed as paw edema at 100 mg/kg, ip pretreated for 1 hr followed by carrageenan challenge and measured after 1 hr by caliper method relative to control. It is filed as functional. The settings on record: time 2 hrs.
Data set [15] is described as follows: in vitro. The note with it: Sprague-Dawley, rat, liver microsomes. This is another data set of the same source.
In data set [16] the target is T1, Bifunctional epoxide hydrolase 2 (Homo sapiens). The data set can be described thus: Potency index, ratio of t-AUCB IC50 to test compound IC50 for recombinant human sEH.
Data set [17] addresses T2, Bifunctional epoxide hydrolase 2 (Homo sapiens, UniProt P34913).
T2 sequence (P34913 whole entry): T1 sequence (whole entry)
The experiment in a line: Inhibition of recombinant human sEH using PHOME as substrate measured after 15 mins by fluorescence assay.

In data set [18] the target is T1, Bifunctional epoxide hydrolase 2 (Homo sapiens). The experiment in a line: Mixed-type inhibition of recombinant human sEH assessed as inhibitor dissociation constant using PHOME as substrate measured after 15 mins by fluorescence based Lineweaver-burk plot analysis.
Data set [19] addresses T2, Bifunctional epoxide hydrolase 2. The experiment in a line: Mixed-type inhibition of recombinant human sEH using PHOME as substrate measured after 15 mins by fluorescence based Lineweaver-burk plot analysis.

Results on five molecules are retold here after ChEMBL document CHEMBL4706628, “Ligand-based optimization to identify novel 2-aminobenzo[d]thiazole derivatives as potent sEH inhibitors with anti-inflammatory effects” (Eur J Med Chem, 2021).

Converted amounts (≈) assume the structure as drawn.

For `Nc1nc2ccc(N(CCN3CCOCC3)C(=O)Nc3ccc(F)c(Br)c3)cc2s1`, the microsomal CLint (commonly the rate of metabolic loss divided by the concentration) at 1 h, 10 µM in the data set “in vitro [1]” turned out to be 55.8 µL/min/mg; in “in vitro [15]” it was 31 µL/min/mg. In addition, the amount remaining at 1 h, 10 µM in “in vitro [2]” was found to be 85%; in the data set “in vitro [10]”, 36.2%. Besides, the IC50 (usually the concentration needed to halve the response being measured) in the data set with HepG2 is greater than 25000 nM. For the same molecule, the Activity with Mus musculus [3] amounted to 27.12%; in the data set on Mus musculus [4], 3.16 mm; with Mus musculus [6], 3.06 mm; with Mus musculus [8] it was 27.39%; in the data set on Mus musculus [9] it was 3.06 mm; in the data set with Mus musculus [12], 3.15 mm. Further, the results for the Activity in the data set with Mus musculus [13] and in the data set on Mus musculus [14] were 31.49% and 30.86%, respectively. In addition, the half-life (usually the time needed for the level to fall by half in the phase considered) at 1 h, 10 µM in “in vitro [5]” stood at 44.7 min. In data set [7], the inhibition – broadly, the drop in the measured response relative to a control, in per cent – was found to be 90.5%. In data set [11], the solubility (kinetic) (commonly solubility judged after dilution from a stock solution rather than from solid) at 2 h came to 68 µg/mL (≈ 138 µM).

As for `O=C(NC12CC3CC(CC(C3)C1)C2)N[C@H]1CC[C@H](Oc2ccc(C(=O)O)cc2)CC1`, the Activity in the data set on Mus musculus [3] came to 24.71%; in the data set with Mus musculus [4], 3.23 mm; in the data set on Mus musculus [6] it was 3.29 mm; in the data set with Mus musculus [8], 24.98%; in the data set on Mus musculus [9], 3.28 mm; in the data set with Mus musculus [12] it was 3.3 mm. Also, the figures for the Activity in the data set with Mus musculus [13] and with Mus musculus [14] were 22.61% and 25.01%, respectively.

Turning to `O=C(Nc1ccc(Cl)cc1)Nc1nc2ccc(N(CCN3CCOCC3)C(=O)Nc3ccc(Cl)cc3)cc2s1`, the Ratio IC50 in data set [16] was 67. For the same molecule, the IC50 in [17] came to 0.1 nM. In addition, the inhibition in [7] came out at 90.2%. In data set [11], this molecule yielded a solubility (kinetic) at 2 h of 30 µg/mL (≈ 51.2 µM).

With `Nc1nc2ccc(N(CCN3CCOCC3)C(=O)Nc3ccc(Cl)cc3)cc2s1`, the figures for the microsomal CLint at 1 h, 10 µM in the data set “in vitro [1]” and in “in vitro [15]” were 71.9 µL/min/mg and 40 µL/min/mg, respectively. The results for the amount remaining at 1 h, 10 µM in the data set “in vitro [2]” and in the data set “in vitro [10]” were 99.5% and 30.1%, respectively. For the same molecule, the IC50 with HepG2 was greater than 25000 nM; in [17], 2.8 nM. The Activity in the data set on Mus musculus [3] is recorded as 23.39%; in the data set on Mus musculus [4] it was 3.06 mm; in the data set on Mus musculus [6] it was 3.13 mm; with Mus musculus [8] it was 21.64%; in the data set with Mus musculus [9], 3.17 mm; with Mus musculus [12] it was 3.11 mm. Further, the results for the Activity in the data set with Mus musculus [13] and with Mus musculus [14] were 19.06% and 20.99%, respectively. In “in vitro [5]”, this molecule yielded a half-life at 1 h, 10 µM of 34.7 min. Further, the inhibition in data set [7] worked out at 89.1%. The solubility (kinetic) at 2 h in data set [11] is 39 µg/mL (≈ 90.3 µM).

Take `O=C(Cc1ccccc1)Nc1nc2ccc(N(CCN3CCOCC3)C(=O)Nc3ccc(Cl)cc3)cc2s1`: the values for the intrinsic metabolic clearance (microsomal CLint) at 1 h, 10 µM in “in vitro [1]” and in the data set “in vitro [15]” were 1480 µL/min/mg and 820 µL/min/mg, respectively. Moreover, the share remaining at 1 h, 10 µM in the data set “in vitro [2]” is 116%; in “in vitro [10]”, 0%. For the same molecule, the IC50 is greater than 25000 nM with HepG2 and 0.082 nM in data set [17]. For the same molecule, the Activity with Mus musculus [3] was 20.32%; in the data set on Mus musculus [4], 3.22 mm; in the data set on Mus musculus [6], 3.19 mm; with Mus musculus [8], 16.48%; with Mus musculus [9], 3.3 mm; in the data set on Mus musculus [12] it was 3.33 mm. The results for the Activity with Mus musculus [13] and in the data set with Mus musculus [14] were 17.58% and 21.56%, respectively. In “in vitro [5]”, this molecule showed a half-life at 1 h, 10 µM of 1.7 min. The inhibition in data set [7] was 84.7%. In [18], the Kdiss is 23.1 nM. In data set [11], this molecule had a kinetic solubility at 2 h of 61 µg/mL (≈ 111 µM). In data set [19], the Ki (usually the equilibrium dissociation constant of an inhibitor or competing ligand from its target) came out at 4.77 nM.
